Key:
velvetleaf = assay: Test C postemergence; type: in vivo, Abutilon theophrasti
Method in brief: (§1)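 Scores of 0 (no effect) to 100 (complete control) were assigned by eye after 13–15 days, comparing treated pots with controls. Soil-applied (preemergence) treatments went onto seeds in loam and sand; foliar (postemergence) treatments onto 1- to 4-leaf plants in peat medium.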

foxtail, giant = assay: Test A preemergence; type: in vivo, Setaria faberii; conditions: preemergence
Method in brief: (§2)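 Both timings tested concurrently in loam/sand soil: preemergence by directed soil spray, postemergence on plants of 2–10 cm at the one- to two-leaf stage. Greenhouse holding period was approximately 10 days before visual injury assessment (0–100, 0 = no effect).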

barnyardgrass [1] = assay: Test A postemergence; type: in vivo, Echinochloa crus-galli
Method in brief: as §2

pigweed = assay: Test C postemergence; type: in vivo, Amaranthus retroflexus
Method in brief: as §1

nutsedge, yellow = assay: Test C postemergence; type: in vivo, Cyperus esculentus
Method in brief: as §1

lambsquarters = assay: Test C postemergence; type: in vivo, Chenopodium album
Method in brief: as §1

johnsongrass = assay: Test C postemergence; type: in vivo, Sorghum halepense
Method in brief: as §1

barnyardgrass [2] = assay: Test B flood; type: in vivo, Echinochloa crus-galli; conditions: 250 g ai/ha, visual rating on 0 to 100 scale (0 no effect, 100 complete control), 13 to 15 days
Method in brief: (§3)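 Visual ratings (0 = no effect, 100 = complete control) versus untreated controls were taken 13–15 days after treatment of greenhouse plants. Treatment was added to paddy water held at 3 cm depth on 2-leaf-stage seedlings.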

rice = assay: Test B flood; type: in vivo, Oryza sativa; conditions: 250 g ai/ha, visual rating on 0 to 100 scale (0 no effect, 100 complete control), 13 to 15 days
Method in brief: as §3

waterhemp = assay: Test C preemergence; type: in vivo, Amaranthus rudis; conditions: for Waterhemp plant response rating: scale 0 to 100 (0 no effect, 100 complete control)
Method in brief: as §1

oat, wild = assay: Test C postemergence; type: in vivo, Avena fatua
Method in brief: as §1

kochia = assay: Test C postemergence; type: in vivo, Kochia scoparia
Method in brief: as §1

oilseed rape = assay: Test C postemergence; type: in vivo, Brassica napus
Method in brief: as §1

ducksalad = assay: Test B flood; type: in vivo, Heteranthera limosa; conditions: 250 g ai/ha, visual rating on 0 to 100 scale (0 no effect, 100 complete control), 13 to 15 days
Method in brief: as §3

[3] = Postemergence, 31 g ai/ha, visually evaluated after 13 to 15 days
[4] = postemergence, 62 g ai/ha, scale 0 to 100
[5] = postemergence, 250 g ai/ha, scale 0 to 100 (0 no effect, 100 complete control)
[6] = postemergence, 125 g ai/ha, scale 0 to 100, 0 no effect, 100 complete control

## CCCNC(=O)c1cc(CC)n(Cc2ccnc(OC(F)F)c2)n1 [Compound 132]
velvetleaf; [3]
  Plant response rating (scale of 0 to 100 where 0 is no effect and 100 is complete control), Velvetleaf: 5
velvetleaf; [4]
  Velvetleaf plant response rating: 15
velvetleaf; [5]
  Plant response rating, Velvetleaf: 50
velvetleaf; [6]
  Plant response rating, Velvetleaf: 35
foxtail, giant; 125 g ai/ha, visual injury, 0 to 100 scale, approx. 10 days
  Foxtail, Giant plant response rating: 100
foxtail, giant; 500 g ai/ha, visual injury after approx. 10 days, 0 to 100 scale (0 no effect, 100 complete control)
  Foxtail, Giant plant response rating: 100
Barnyardgrass [1]; Postemergence, 500 g ai/ha, 0 to 100 scale (0 no effect, 100 complete control)
  Barnyardgrass plant response rating: 90
Barnyardgrass [1]; postemergence, 125 g ai/ha, about 10 days, visual rating on 0 to 100 scale (0 no effect, 100 complete control)
  Barnyardgrass plant response rating: 90
pigweed; [3]
  Plant response rating (scale of 0 to 100 where 0 is no effect and 100 is complete control), Pigweed: 10
pigweed; [4]
  Pigweed plant response rating: 30
pigweed; [5]
  Plant response rating, Pigweed: 60
pigweed; [6]
  Plant response rating, Pigweed: 35
nutsedge, yellow; [3]
  Plant response rating (scale of 0 to 100 where 0 is no effect and 100 is complete control), Nutsedge, Yellow: 5
nutsedge, yellow; [4]
  Nutsedge, Yellow plant response rating: 10
nutsedge, yellow; [5]
  Plant response rating, Nutsedge, Yellow: 10
nutsedge, yellow; [6]
  Plant response rating, Nutsedge, Yellow: 20
lambsquarters; [3]
  Plant response rating (scale of 0 to 100 where 0 is no effect and 100 is complete control), Lambsquarters: 25
lambsquarters; [4]
  Lambsquarters plant response rating: 55
lambsquarters; [5]
  Plant response rating, Lambsquarters: 85
lambsquarters; [6]
  Plant response rating, Lambsquarters: 75
johnsongrass; [3]
  Plant response rating (scale of 0 to 100 where 0 is no effect and 100 is complete control), Johnsongrass: 5
johnsongrass; [4]
  Johnsongrass plant response rating: 5
johnsongrass; [5]
  Plant response rating, Johnsongrass: 75
johnsongrass; [6]
  Plant response rating, Johnsongrass: 25
Barnyardgrass [2]
  Plant response rating, Barnyardgrass: 60
rice
  Plant response rating, Rice: 35
waterhemp; Preemergence, 250 g ai/ha
  Plant response rating (scale of 0 to 100), Waterhemp: 100
waterhemp; preemergence, 31 g ai/ha, visual rating, 13 to 15 days
  Waterhemp plant response rating: 100
waterhemp; preemergence, 62 g ai/ha, 13 to 15 days
  Waterhemp plant response rating: 100
waterhemp; preemergence, 125 g ai/ha, 13 to 15 days, scale 0 to 100, 0 = no effect, 100 = complete control
  Plant response rating, Waterhemp: 100
oat, wild; [3]
  Plant response rating (scale of 0 to 100 where 0 is no effect and 100 is complete control), Oat, Wild: 10
oat, wild; [4]
  Oat, Wild plant response rating: 10
oat, wild; [5]
  Plant response rating, Oat, Wild: 25
oat, wild; [6]
  Plant response rating, Oat, Wild: 10
kochia; [3]
  Plant response rating (scale of 0 to 100 where 0 is no effect and 100 is complete control), Kochia: 70
kochia; [4]
  Kochia plant response rating: 80
kochia; [5]
  Plant response rating, Kochia: 90
kochia; [6]
  Plant response rating, Kochia: 80
Oilseed rape; [3]
  Plant response rating (scale of 0 to 100 where 0 is no effect and 100 is complete control), Oilseed Rape: 25
Oilseed rape; [4]
  Oilseed Rape plant response rating: 55
Oilseed rape; [5]
  Plant response rating, Oilseed Rape: 65
Oilseed rape; [6]
  Plant response rating, Oilseed Rape: 65
ducksalad
  Plant response rating, Ducksalad: 100

Source: patent US20150105252A1, “SUBSTITUTED PYRAZOLES AS HERBICIDES” (E I DU PONT DE NEMOURS AND COMPANY, priority 2013, published 2015)
